Drawing on US20250320206A1, “STAT6 DEGRADERS” (Gilead Sciences, Inc., priority 2024, published 2025), this text covers EC50 and DC50 for 4 compounds.

The term pEC50 denotes −log10 of the EC50, conventionally taken in molar units. By DC50 is commonly meant the concentration giving 50% degradation.

Molecules are shown by their SMILES. pEC50: −log10 of the molar value.

For assay [1], the system named is Eotaxin-3 release in human whole blood stimulated with IL-4. Kind of assay: Human Whole Blood Eotaxin-3 Assay (IL-4 stimulated eotaxin-3 release). Format: cell-based. As to conditions: IL-4 stimulation, 48 h, values given for compounds with >80% Emax, geometric mean. In short, it runs like this: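 Lithium-heparin human whole blood preincubated 2 h at 37° C with 4-fold serially diluted compounds (0.5% DMSO), then stimulated with recombinant human IL-4 ([…]) for 48 h. Eotaxin-3 (CCL26) in supernatant quantified by MSD immunoassay.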

A further assay has as its target T1, STAT6 (Homo sapiens, UniProt P42226).
T1 construct: These cells express endogenous STAT6; host or cells: HeLa LgBiT clone 4.14
T1 sequence (P42226 1-847): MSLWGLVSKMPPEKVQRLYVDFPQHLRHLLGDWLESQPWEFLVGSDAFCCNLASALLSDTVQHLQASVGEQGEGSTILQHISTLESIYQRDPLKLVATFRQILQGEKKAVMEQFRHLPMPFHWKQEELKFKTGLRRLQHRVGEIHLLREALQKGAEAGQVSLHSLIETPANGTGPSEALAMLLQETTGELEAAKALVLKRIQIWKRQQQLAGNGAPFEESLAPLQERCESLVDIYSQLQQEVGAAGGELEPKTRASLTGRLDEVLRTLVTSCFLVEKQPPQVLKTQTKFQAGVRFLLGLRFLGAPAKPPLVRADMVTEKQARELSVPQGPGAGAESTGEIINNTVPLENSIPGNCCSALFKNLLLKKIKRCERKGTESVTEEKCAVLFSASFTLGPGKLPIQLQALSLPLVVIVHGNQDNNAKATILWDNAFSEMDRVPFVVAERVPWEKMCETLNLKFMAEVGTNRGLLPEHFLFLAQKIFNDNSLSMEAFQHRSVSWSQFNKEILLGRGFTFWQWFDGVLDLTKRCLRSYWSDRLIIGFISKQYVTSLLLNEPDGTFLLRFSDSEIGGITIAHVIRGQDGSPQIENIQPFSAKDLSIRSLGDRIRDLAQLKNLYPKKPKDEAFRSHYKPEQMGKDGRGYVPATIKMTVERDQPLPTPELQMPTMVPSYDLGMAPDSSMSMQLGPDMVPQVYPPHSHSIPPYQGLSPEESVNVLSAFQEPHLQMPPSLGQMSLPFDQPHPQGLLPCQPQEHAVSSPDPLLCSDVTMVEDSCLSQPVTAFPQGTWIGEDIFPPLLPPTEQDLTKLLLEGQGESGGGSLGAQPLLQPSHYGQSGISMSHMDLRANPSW
Kind of assay: Stat6 Degrader Assay (HiBiT based, HeLa LgBiT clone 4.14). As to conditions: HeLa LgBiT clone 4.14 HiBiT-STAT6, 4-24 h incubation; values given for compounds with >80% Emax; geometric mean; read-out: STAT6 degradation DC50. The assay is classed as cell-based. The method in brief: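 HeLa LgBiT clone 4.14 cells with CRISPR HiBiT-tagged endogenous STAT6, 5000 cells/well, compound dosed then incubated 4-24 h at 37° C, 5% CO2. Nano-Glo substrate added, 0.5 h, luminescence read as non-degraded STAT6. Terfenadine 50 μM (cell kill) defines 100% degradation.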
For orientation: With HiBiT, luminescence reflects the tagged protein that the partner subunit can reach.

As for `CNc1ccn(-c2ccnc3c2cc([C@H](C)N2CC=C(c4c(C)cc(C(=O)N5CCC(CN6CCN(Cc7ccc8c(c7)n(C7CC7)c(=O)n8C7CCC(=O)NC7=O)C[C@@H]6C)CC5)cc4F)CC2)n3C)c(=O)c1` (stereo partly drawn) [Example 3u111, 3-(3-cyclopropyl-5-(((S)-4-((1-(3-fluoro-5-methyl-4-(1-((S)-1-(1-methyl-4-(4-(methylamino)-2-oxopyridin-1 (2H)-yl)-1H-pyrrolo[2,3-b]pyridin-2-yl)ethyl)-1,2,3,6-tetrahydropyridin-4-yl)benzoyl)piperidin-4-yl)methyl)-3-methylpiperazin-1-yl)methyl)-2-oxo-2,3-dihydro-1H-benzo[d]imidazol-1-yl)piperidine-2,6-dione], the pEC50 in assay [1] is 9.52. Besides, on STAT6, the DC50 amounted to 400 pM.
Compound `CNc1ccn(-c2ccnc3c2cc(CN2CCC(c4c(F)cc(C(=O)N(C)c5ccc(C6CCN(Cc7ccc8c(c7)n(C)c(=O)n8C7CCC(=O)NC7=O)CC6)cc5)cc4F)CC2)n3C)c(=O)c1` (centres unmarked) [Example 3u244, N-(4-(1-((1-(2,6-dioxopiperidin-3-yl)-3-methyl-2-oxo-2,3-dihydro-1H-benzo[d]imidazol-5-yl)methyl)piperidin-4-yl)phenyl)-3,5-difluoro-N-methyl-4-(1-((1-methyl-4-(4-(methylamino)-2-oxopyridin-1 (2H)-yl)-1H-pyrrolo[2,3-b]pyridin-2-yl)methyl)piperidin-4-yl)benzamide] had a pEC50 in assay [1] of 9.52. In addition, at STAT6, the DC50 amounted to 100 pM.
As to `CNc1ccn(-c2ccnc3c2cc(CN2CCC(c4c(F)cc(C(=O)N5CCC(CN6CCN(Cc7ccc8c(c7)C7(CC7)C(=O)N8C7CCC(=O)NC7=O)C[C@@H]6C)CC5)cc4F)CC2)n3C)c(=O)c1` (stereo partly drawn) [Example 3u222, 3-(5′-(((S)-4-((1-(3,5-difluoro-4-(1-((1-methyl-4-(4-(methylamino)-2-oxopyridin-1 (2H)-yl)-1H-pyrrolo[2,3-b]pyridin-2-yl)methyl)piperidin-4-yl)benzoyl)piperidin-4-yl)methyl)-3-methylpiperazin-1-yl)methyl)-2′-oxospiro[cyclopropane-1,3′-indolin]-1′-yl)piperidine-2,6-dione], in assay [1], the pEC50 is 8.96. In addition, at STAT6, the DC50 stood at 1500 pM.
`CNc1ccn(-c2ccnc3c2cc([C@H](C)N2CC=C(c4c(C)cc(C(=O)N5CCC(CN6CCN(Cc7ccc8c(c7)C7(CC7)C(=O)N8[C@@H]7CCC(=O)NC7=O)C[C@@H]6C)CC5)cc4F)CC2)n3C)c(=O)c1` (single isomer, unassigned) [Example 3u192] gave a pEC50 in assay [1] of 9.05. The DC50 at STAT6 was 600 pM.
